Test results: patent EP4635500A1, “THERAPEUTIC AGENT FOR BACTERIAL INFECTION” (Sumitomo Pharma Co., Ltd., priority 2022, dated 2024)
Values joined by “and” are separate entries in the source; they are usually repeats but may differ in a detail not shown here. Equal values may be shown once. Read-outs that look alike come from different tables or passages of the source.

What was measured:
Providencia rettgeri = assay: MIC, broth microdilution, standard strains and Japanese clinical isolates (Example 5, Table 4); type: cell-based; conditions: ATCCBAA2525; KUB4010 Providencia rettgeri ATCC BAA-2525, OXA-181
Enterobacterales = assay: MIC, broth microdilution, CDC/FDA Antibiotic Resistance Isolate Bank (Example 7, Tables 8, 11, 12); type: cell-based

C[C@@H](O)[C@H]1C(=O)N2C(C(=O)O)=C(S[C@@H]3CN[C@H](C(=O)N(C)C)C3)[C@H](C)[C@H]12 [MEPM, meropenem]
0.12 µg/mL: MIC (Enterobacterales; Enterobacter cloacae, KUB No. 5529, AR Bank # 32, KPC-3, read-out: MIC) | MIC (Enterobacterales; Enterobacter cloacae, KUB No. 5569, AR Bank # 72, no carbapenemase gene, read-out: MIC) | MIC (Enterobacterales; Enterobacter cloacae, KUB No. 5778, AR Bank# 432, no carbapenemase genes, read-out: MIC) | MIC (Enterobacterales; Klebsiella aerogenes, Enterobacter aerogenes, KUB No. 5559, AR Bank # 62, no carbapenemase gene, read-out: MIC)
4 µg/mL: MIC (Enterobacterales; Enterobacter cloacae, KUB No. 5651, AR Bank# 154, VIM-1, read-out: MIC) | MIC (Enterobacterales; Enterobacter cloacae, KUB No. 5660, AR Bank# 163, KPC-2, read-out: MIC) | MIC (Enterobacterales; Enterobacter cloacae, KUB No. 5808, AR Bank# 502, IMP-8, read-out: MIC) | MIC (Enterobacterales; Klebsiella pneumoniae, KUB No. 5544, AR Bank # 47, no carbapenemase gene, read-out: MIC) | MIC (Enterobacterales; Klebsiella pneumoniae, KUB No. 5576, AR Bank # 79, no carbapenemase gene, read-out: MIC) | MIC (Enterobacterales; Klebsiella pneumoniae, KUB No. 5577, AR Bank # 80, IMP-4, read-out: MIC) | MIC (Enterobacterales; Klebsiella pneumoniae, KUB No. 5609, AR Bank # 112, KPC-3, read-out: MIC)
0.5 µg/mL: MIC (Enterobacterales; Enterobacter cloacae, KUB No. 5547, AR Bank # 50, KPC-4, read-out: MIC) | MIC (Enterobacterales; Enterobacter cloacae, KUB No. 5763, AR Bank# 367, no carbapenemase genes, read-out: MIC) | MIC (Enterobacterales; Enterobacter cloacae, KUB No. 5807, AR Bank# 501, VIM-1, read-out: MIC) | MIC (Enterobacterales; Klebsiella aerogenes, Enterobacter aerogenes, KUB No. 5571, AR Bank # 74, OXA-48, read-out: MIC) | MIC (Enterobacterales; Klebsiella pneumoniae, KUB No. 5540, AR Bank # 43, no carbapenemase gene, read-out: MIC)
2 µg/mL: MIC (Providencia rettgeri) | MIC (Enterobacterales; Enterobacte (name cut at the end of the table), KUB No. 5629, AR Bank # 132, NMC (cut), read-out: MIC) | MIC (Enterobacterales; Enterobacter cloacae, KUB No. 5550, AR Bank # 53, KPC-3, read-out: MIC) | MIC (Enterobacterales; Enterobacter cloacae, KUB No. 5761, AR Bank# 365, KPC-2, read-out: MIC) | MIC (Enterobacterales; Escherichia coli, KUB No. 5611, AR Bank # 114, KPC-3, read-out: MIC) | MIC (Enterobacterales; Escherichia coli, KUB No. 5796, AR Bank# 452, NDM-5, read-out: MIC) | MIC (Enterobacterales; Klebsiella oxytoca, KUB No. 5776, AR Bank# 380, no carbapenemase genes, read-out: MIC) | MIC (Enterobacterales; Klebsiella pneumoniae, KUB No. 5541, AR Bank # 44, no carbapenemase gene, read-out: MIC) | MIC (Enterobacterales; Klebsiella pneumoniae, KUB No. 5573, AR Bank # 76, VIM-1, read-out: MIC)
> 32 µg/mL: MIC (Enterobacterales; Enterobacter cloacae, KUB No. 5535, AR Bank # 38, NDM-1, read-out: MIC) | MIC (Enterobacterales; Escherichia coli, KUB No. 5647, AR Bank# 150, NDM-5, read-out: MIC) | MIC (Enterobacterales; Klebsiella pnemnonice, KUB No. 5784, AR Bank# 438, KPC-3, read-out: MIC) | MIC (Enterobacterales; Klebsiella pneumoniae, KUB No. 5537, AR Bank # 40, VIM-27, read-out: MIC) | MIC (Enterobacterales; Klebsiella pneumoniae, KUB No. 5565, AR Bank # 68, OXA-232, NDM-1, read-out: MIC) | MIC (Enterobacterales; Klebsiella pneumoniae, KUB No. 5603, AR Bank # 106, NDM-1, read-out: MIC) | MIC (Enterobacterales; Klebsiella pneumoniae, KUB No. 5610, AR Bank # 113, KPC-3, read-out: MIC)
32 µg/mL and >32 µg/mL: MIC90 (Enterobacterales)
1 µg/mL: MIC (Enterobacterales; Enterobacter cloacae, KUB No. 5590, AR Bank # 93, KPC-6, read-out: MIC) | MIC (Enterobacterales; Enterobacter cloacae, KUB No. 5762, AR Bank# 366, KPC-2, read-out: MIC) | MIC (Enterobacterales; Escherichia coli, KUB No. 5558, AR Bank # 61, KPC-3 (line continued in Table 8-2), read-out: MIC) | MIC (Enterobacterales; Klebsiella aerogenes, Enterobacter aerogenes, KUB No. 5658, AR Bank# 161, IMP-4, read-out: MIC) | MIC (Enterobacterales; Klebsiella ozaenae, KUB No. 5548, AR Bank # 51, OXA-181, read-out: MIC) | MIC (Enterobacterales; Klebsiella pneumoniae, KUB No. 5536, AR Bank # 39, OXA-181, read-out: MIC)
32 µg/mL: MIC (Enterobacterales; Enterobacter cloacae, Enterobacter cloacae complex, KUB No. 5661, AR Bank# 164, NMC-A, read-out: MIC) | MIC (Enterobacterales; Escherichia coli, KUB No. 5634, AR Bank# 137, NDM-6, read-out: MIC) | MIC (Enterobacterales; Escherichia coli, KUB No. 5659, AR Bank# 162, NDM-7, read-out: MIC) | MIC (Enterobacterales; Escherichia coli, KUB No. 5781, AR Bank# 435, NDM-1, read-out: MIC) | MIC (Enterobacterales; Klebsiella ozaenae, KUB No. 5593, AR Bank # 96, KPC-3, read-out: MIC) | MIC (Enterobacterales; Klebsiella pneumoniae, KUB No. 5543, AR Bank # 46, VIM-27, read-out: MIC) | MIC (Enterobacterales; Klebsiella pneumoniae, KUB No. 5546, AR Bank # 49, NDM-1, read-out: MIC) | MIC (Enterobacterales; Klebsiella pneumoniae, KUB No. 5594, AR Bank # 97, KPC-3, read-out: MIC)
16 µg/mL: MIC (Enterobacterales; Citrobacter freundii) | MIC (Enterobacterales; Enterobacter cloacae, KUB No. 5792, AR Bank# 448, NDM-1, read-out: MIC) | MIC (Enterobacterales; Escherichia coli, KUB No. 5794, AR Bank# 450, no carbapenemase genes, read-out: MIC) | MIC (Enterobacterales; Klebsiella pneumoniae, KUB No. 5604, AR Bank # 107, no carbapenemase gene, read-out: MIC) | MIC (Enterobacterales; Klebsiella pneumoniae, KUB No. 5614, AR Bank # 117, KPC-3, read-out: MIC) | MIC (Enterobacterales; Klebsiella pneumoniae, KUB No. 5617, AR Bank # 120, KPC-2, read-out: MIC)
8 µg/mL: MIC (Enterobacterales; Enterobacter cloacae, KUB No. 5633, AR Bank# 136, KPC-3, read-out: MIC) | MIC (Enterobacterales; Escherichia coli, KUB No. 5646, AR Bank# 149, NDM-7, read-out: MIC) | MIC (Enterobacterales; Escherichia coli, KUB No. 5648, AR Bank# 151, NDM-5, read-out: MIC) | MIC (Enterobacterales; Klebsiella oxytoca, KUB No. 5568, AR Bank # 71, no carbapenemase gene, read-out: MIC) | MIC (Enterobacterales; Klebsiella pneumoniae, KUB No. 5538, AR Bank # 41, NDM-1, read-out: MIC) | MIC (Enterobacterales; Klebsiella pneumoniae, KUB No. 5563, AR Bank # 66, OXA-232, read-out: MIC) | MIC (Enterobacterales; Klebsiella pneumoniae, KUB No. 5595, AR Bank # 98, KPC-2, read-out: MIC) | MIC (Enterobacterales; Klebsiella pneumoniae, KUB No. 5606, AR Bank # 109, no carbapenemase gene, read-out: MIC) | MIC (Enterobacterales; Klebsiella pneumoniae, KUB No. 5612, AR Bank # 115, KPC-3, read-out: MIC)
≤ 0.06 µg/mL: MIC (Enterobacterales; Enterobacter cloacae, KUB No. 5557, AR Bank # 60, no carbapenemase gene, read-out: MIC) | MIC (Enterobacterales; Enterobacter cloacae, KUB No. 5570, AR Bank # 73, no carbapenemase gene, read-out: MIC) | MIC (Enterobacterales; Escherichia coli, KUB No. 5764, AR Bank# 368, no carbapenemase genes, read-out: MIC) | MIC (Enterobacterales; Escherichia coli, KUB No. 5765, AR Bank# 369, no carbapenemase genes, read-out: MIC) | MIC (Enterobacterales; Escherichia coli, KUB No. 5766, AR Bank# 370, no carbapenemase genes, read-out: MIC) | MIC (Enterobacterales; Escherichia coli, KUB No. 5767, AR Bank# 371, no carbapenemase genes, read-out: MIC) | MIC (Enterobacterales; Escherichia coli, KUB No. 5768, AR Bank# 372, no carbapenemase genes, read-out: MIC) | MIC (Enterobacterales; Escherichia coli, KUB No. 5769, AR Bank# 373, no carbapenemase genes, read-out: MIC) | MIC (Enterobacterales; Escherichia coli, KUB No. 5770, AR Bank# 374, no carbapenemase genes, read-out: MIC) | MIC (Enterobacterales; Escherichia coli, KUB No. 5774, AR Bank# 378, no carbapenemase genes, read-out: MIC) | MIC (Enterobacterales; Escherichia coli, KUB No. 5779, AR Bank# 433, no carbapenemase genes, read-out: MIC) | MIC (Enterobacterales; Escherichia coli, KUB No. 5780, AR Bank# 434, no carbapenemase genes, read-out: MIC) | MIC (Enterobacterales; Escherichia coli, KUB No. 5782, AR Bank# 436, no carbapenemase genes, read-out: MIC) | MIC (Enterobacterales; Escherichia coli, KUB No. 5783, AR Bank# 437, no carbapenemase genes, read-out: MIC) | MIC (Enterobacterales; Klebsiella aerogenes, Enterobacter aerogenes, KUB No. 5777, AR Bank# 431, no carbapenemase genes, read-out: MIC) | MIC (Enterobacterales; Klebsiella oxytoca, KUB No. 5771, AR Bank# 375, no carbapenemase genes, read-out: MIC) | MIC (Enterobacterales; Klebsiella pneumoniae, KUB No. 5584, AR Bank # 87, no carbapenemase gene, read-out: MIC)
0.25 µg/mL: MIC (Enterobacterales; Enterobacter cloacae, KUB No. 5562, AR Bank # 65, no carbapenemase gene, read-out: MIC) | MIC (Enterobacterales; Klebsiella ornithinolytica) | MIC (Enterobacterales; Klebsiella oxytoca, KUB No. 5644, AR Bank# 147, KPC-3, read-out: MIC) | MIC (Enterobacterales; Klebsiella pneumoniae, KUB No. 5531, AR Bank # 34, IMP-4, read-out: MIC)
